Test results: patent US12661335B2, “Halogenated xanthene-containing topical anti-gram-positive bacterial ophthalmic composition and method” (Provectus Pharmatech, Inc., priority 2021, dated 2026)
Values after ≈ are worked out from the molar mass of the structure shown.

How the values were obtained:
F. solani = conditions: three days of incubation, cited from earlier work
Gram-positive bacteria = experiment: MIC summary for Gram-positive bacteria, broth dilution; type: cell-based
From the text: Under the dark condition RB is known to display antibacterial activity at high concentrations.
Provectus has established a manufacturing and purification process for pharmaceutical-grade RB that fulfills both cGMP and ICH requirements. We have evaluated the antibacterial activity and cytotoxicity of a pharmaceutical-grade RB formulated product (PV-10®) as an exemplary RB compound in illuminating and dark conditions.

[1] = system: Staphylococcus epidermidis 35984 ™; experiment: MIC, broth dilution method, dark condition; type: cell-based
[2] = system: Enterococcus faecium patient #3-1, NR-31912 (a vancomycin-resistant strain); experiment: MIC, broth dilution method, dark condition; type: cell-based; conditions: Table 1 entry 21, 24 h
[3] = system: Bacillus cereus NRRL B-569; experiment: MIC, broth dilution method, dark condition; type: cell-based; conditions: NRRLB569, Table 1 entry 2, 24 h
[4] = system: Staphylococcus aureus USA100 strains 71080 (VRS8, a vancomycin-resistant strain); experiment: MIC, broth dilution method, dark condition; type: cell-based; conditions: Table 1 entry 15, 24 h
C. albicans = conditions: three days of incubation, cited from earlier work
[5] = system: biofilms of S. aureus 6508™; experiment: Biofilm eradication assay; type: cell-based, Staphylococcus aureus; conditions: for viable bacteria in biofilm: dark condition
Experimental: 62:394-399 (2013)], and was used as a control.
Linezolid was applied as a positive control at very high concentration of 600 μg/mL (>100×MIC for the planktonic cells) in biofilm assays reported by Kurosu et al., Molecules 27:322 (2022).

[6] = system: Enterococcus faecium 349 ™; experiment: MIC, broth dilution method, dark condition; type: cell-based; conditions: Table 1 entry 18, 24 h
[7] = system: Staphylococcus aureus BR 5 (A methicillin and vancomycin resistant strain); experiment: MIC, broth dilution method, dark condition; type: cell-based; conditions: Table 1 entry 13, 24 h
[8] = system: biofilms of E. faecium NR-32065; experiment: Biofilm eradication assay; type: cell-based, Enterococcus faecium; conditions: fluorescent and dark conditions; concentration-dependent
From the text: Linezolid is not an effective drug in eradicating biofilms of Gram-positive bacteria, but has a beneficial effect in prevention of biofilm formations [Reiter et al., J. Med. Microbiol. 62:394-399 (2013)], and was used as a control.
We confirm that RB is an excellent agent to eradicate biofilms of Gram-positive bacteria, including drug-resistant strains. […] These studies indicate that RB has the potential antibacterial agent to kill drug-resistant bacteria in any growth phases.

[9] = system: progressive infectious keratitis; conditions: cited from earlier work
[10] = system: Bacillus subtilis ATCC6051; experiment: MIC, agar dilution method; type: cell-based; conditions: Table 2 entry 1, dark
From the text: (§1) The MIC values of RB determined by the agar dilution method differed from those determined by the broth dilution method (Table 1). Selected examples of the MIC values determined by the agar dilution method are summarized in Table 2 shown by renumbering the assayed microbes.

Bacillus cereus 13061 ™ = experiment: MIC, agar dilution method; type: cell-based; conditions: Table 2 entry 2, dark
From the text: as §1

[11] = system: Staphylococcus aureus 6538 ™; experiment: MIC, agar dilution method; type: cell-based; conditions: Table 2 entry 3, dark
From the text: as §1

[12] = system: Staphylococcus aureus subsp. Aureus BAA-44 ™ (a MRSA strain); experiment: MIC, agar dilution method; type: cell-based; conditions: Table 2 fourth entry (printed 1), dark
From the text: as §1

[13] = system: Mycobacterium smegmatis 607 ™; experiment: MIC, agar dilution method; type: cell-based; conditions: Mycolicibacterium smegmatis, Table 2 entry 5, dark
From the text: as §1

[14] = system: Bacillus subtilis ATCC6051; experiment: MIC, broth dilution method, dark condition; type: cell-based; conditions: Table 1 entry 1, 24 h
[15] = system: Streptococcus pneumoniae 6301 ™; experiment: MIC, broth dilution method, dark condition; type: cell-based
[16] = system: Staphylococcus aureus subsp. Aureus 33592 ™ (a methicillin and gentamicin resistant strain); experiment: MIC, broth dilution method, dark condition; type: cell-based; conditions: Table 1 entry 11, 24 h
[17] = system: Enterococcus faecium UAA714 (a vancomycin-resistant strain); experiment: MIC, broth dilution method, dark condition; type: cell-based; conditions: Table 1 entry 22, 24 h

**Q.** For O=C(O)c1c(Cl)c(Cl)c(Cl)c(Cl)c1-c1c2cc(I)c(=O)c(I)c-2oc2c(I)c(O)c(I)cc12 [RB, 4,5,6,7-tetrachloro-2′,4′,5′,7′-tetraiodofluorescein], which “Day 3 Growth Inhibition Percentage, RB + 518 nm Irradiation” value (F. solani; 518 nm, 5.4 J/cm^2) is on record?
**A.** The value was 78.2 ± 2.1 Percentage.

**Q.** And the “Day 3 Growth Inhibition Percentage, RB Only” value (F. solani; dark, no irradiation)?
**A.** Its value is 7.3 ± 1.1 Percentage.

**Q.** What about the “concentration showing antibacterial activity against all Gram-positive bacteria of entries 1-23” value (Gram-positive bacteria; dark condition, Table 1) of the same compound?
**A.** Its value is 25.0 to 100 µg/mL.

**Q.** And the MIC (Gram-positive bacteria; saline-diluted PV-10, except Streptococcus pneumoniae sp., lighting not given, read-out: MIC against most Gram-positive bacteria)?
**A.** The MIC was 0.39 to 3.1 µg/mL (≈ 0.401 to 3.18 µM).

**Q.** What about the MIC ([1]; Staphylococcus epidermidis, Table 1 entry 16, broth dilution, dark, 24 h) of the same compound?
**A.** The MIC was 25 µg/mL (≈ 25.7 µM).

**Q.** What about the “killing by RB” value ([1]; aerobic condition, entry 16) of the same compound?
**A.** Its value is “effectively killed”.

**Q.** What about the MIC [2] of the same compound?
**A.** Its MIC is 50 µg/mL (≈ 51.4 µM).

**Q.** And the MIC [3]?
**A.** The MIC was 50 µg/mL (≈ 51.4 µM).

**Q.** What about the MIC [4] of the same compound?
**A.** Its MIC is 25 µg/mL (≈ 25.7 µM).

**Q.** And the “Day 3 Growth Inhibition Percentage, RB + 518 nm Irradiation” value (C. albicans; 518 nm, 5.4 J/cm^2)?
**A.** The value was 95.6 ± 3 Percentage.

**Q.** And the “Day 3 Growth Inhibition Percentage, RB Only” value (C. albicans; dark, no irradiation)?
**A.** The value was 42.2 ± 3.7 Percentage.

**Q.** What about the “viable bacteria in biofilm” value ([5]; RB 50.0 μg/mL (2×MIC under dark)) of the same compound?
**A.** Its value is “significantly reduced the number of viable bacteria”.

**Q.** And the “viable bacteria in biofilm” value ([5]; RB 1,000 μg/mL)?
**A.** Its value is “No viable bacteria”.

**Q.** What about the “biofilm eradication, log reduction” value ([5]; under the fluorescent light, RB 30.0 μg/mL (38×MIC)) of the same compound?
**A.** Its value is 7 log reduction.

**Q.** What about the MIC [6] of the same compound?
**A.** Its MIC is 50 µg/mL (≈ 51.4 µM).

**Q.** And the MIC [7]?
**A.** The MIC was 25 µg/mL (≈ 25.7 µM).

**Q.** And the “viable cells in biofilm” value [8]?
**A.** Its value is “significantly reduced”.

**Q.** What about the “Successful RB-PDAT (avoidance of therapeutic keratoplasty), share of cases” value ([9]; 0.1 or 0.2% RB on de-epithelized corneas 30 minutes, then 5.4 J/cm^2 green LED light 15 minutes, 18 patients unresponsive to standard therapy) of the same compound?
**A.** The value was 72%.

**Q.** And the “average time to clinical resolution after RB-PDAT” value ([9]; 0.1 or 0.2% RB, 5.4 J/cm^2 green LED light)?
**A.** Its value is 46.9 ± 26.4 days.

**Q.** And the MIC [10]?
**A.** The MIC was 125 µg/mL (≈ 128 µM).

**Q.** And the MIC (Bacillus cereus 13061 ™)?
**A.** The MIC was 125 µg/mL (≈ 128 µM).

**Q.** What about the MIC [11] of the same compound?
**A.** Its MIC is 25 µg/mL (≈ 25.7 µM).

**Q.** What about the MIC [12] of the same compound?
**A.** Its MIC is 50 µg/mL (≈ 51.4 µM).

**Q.** And the MIC [13]?
**A.** Its MIC is 50 µg/mL (≈ 51.4 µM).

**Q.** And the MIC [14]?
**A.** The MIC was 50 µg/mL (≈ 51.4 µM).

**Q.** What about the MIC ([15]; Streptococcus pneumoniae, Table 1 entry 24, broth dilution, dark, 24 h) of the same compound?
**A.** Its MIC is > 100 µg/mL.

**Q.** And the “susceptibility to RB” value ([15]; entry 24)?
**A.** Its value is “showed resistance”.

**Q.** What about the MIC [16] of the same compound?
**A.** The MIC was 50 µg/mL (≈ 51.4 µM).

**Q.** What about the MIC [17] of the same compound?
**A.** Its MIC is 50 µg/mL (≈ 51.4 µM).
